Results: patent EP1321169A1, “Combination of a serotonin receptor antagonist with a histidine decarboxylase inhibitor as a medicament” (Biofrontera Pharmaceuticals AG, priority 2001, dated 2003)

Legend:
[1] = repeated administration; cited from earlier work
[2] = system: human histamine receptors; assay: Cloned human H1, H2, H3 and H4 receptor binding assay (summary statement); conditions: statement in words
Experimental: (§1) COS-7 cells were transiently transfected with an expression plasmid pCineohH1, pCineohH2, pCineohH3 and pCineohH4 encoding the human Histamine H1, H2 H3 or H4 receptor, respectively. Transfected cells were harvested after 48 h, homogenized in ice-cold 50 mM Na2/potassium phosphate buffer (pH 7.4) and used for radioligand binding studies. Cell homogenates (40 - 50 µg of protein) were incubated for 30 min at 25°C in 50 mM Na2/potassium phosphate buffer (pH 7.4) in 400 µl with the various concentrations of either [^3H]-mepyramine, [^3H]-thiotidine, [^3H]-R-α-Methylhistamine, and [^3H]-pyramilamine for cells expressing recombinant human H1, H2, H3 and H4 receptors, respectively. The nonspecific binding was defined in the presence of 1 µM mianserin. In displacement studies, cell homogenated were incubated either with 1 nM [^3H]-mepyramine, 15 nM [^3H]-thiotidine, 0.5 nM [^3H]-R-α-Methylhistamine, or 15 nM [^3H]-pyramilamine and increasing concentrations of competing ligands. The incubations were stopped by rapid dilution with 3 ml of ice-cold 50 mM Na2/potassium phosphate buffer (pH 7.4). The bound radioactivity was separated by filtration through Whatman GF/C filters that had been treated with 0.3 % polyethyleneimine. Filters were washed twice in 3 ml of buffer and radioactivity retained on the filters was measured by liquid scintillation counting.

[3] = target: T1, human Histamine H2 receptor (Homo sapiens, UniProt P25021); assay: Cloned human H2 receptor binding assay, [3H]-thiotidine, COS-7 cells; conditions: n.A. = no affinity (= no inhibition of histamine activity) detected, read-out: Receptor Affinity: pK Values, measured receptor H2 (converted)
T1 construct: expressed in transfected cells; host or cells: COS-7 (transient)
Experimental: as §1

T1 sequence (P25021 whole entry): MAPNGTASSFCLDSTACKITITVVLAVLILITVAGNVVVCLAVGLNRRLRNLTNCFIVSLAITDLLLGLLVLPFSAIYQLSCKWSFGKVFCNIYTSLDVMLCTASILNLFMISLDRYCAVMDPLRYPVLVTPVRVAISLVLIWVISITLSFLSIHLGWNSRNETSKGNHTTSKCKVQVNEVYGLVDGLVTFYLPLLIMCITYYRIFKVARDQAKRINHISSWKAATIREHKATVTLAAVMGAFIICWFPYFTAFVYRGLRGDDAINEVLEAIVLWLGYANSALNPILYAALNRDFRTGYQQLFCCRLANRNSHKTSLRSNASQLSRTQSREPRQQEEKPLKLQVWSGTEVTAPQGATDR

Row | affinity for the human histamine receptors [2] | Ki [3] | SMILES | sedative effects [1] | tissue histamine content [1]
1 | low affinity |  | N[C@@](CF)(Cc1cnc[nH]1)C(=O)O [FMH, (S)-α-fluoromethylhistidine] | only very mild sedative effects | strong reduction
2 |  | 3240 nM | CCOc1ccc2c(c1)Sc1cccc(O)c1C2=C1CCN(C)CC1 [4-(6-Ethoxy-1-hydroxy-thioxanthen-9-yliden)-1-methyl-piperidine] |  | 
3 |  | 1050 nM | COc1cccc2c1C(=C1CCN(C)CC1)c1ccc(C(C)C)cc1S2 [4-(6-Isopropyl-1-methoxy-thioxanthen-9-yliden)-1-methyl-piperidine] |  | 
4 |  | 2040 nM | CCOc1ccc2c(c1)Sc1cccc(OC)c1C2=C1CCN(C)CC1 [4-(6-Ethoxy-1-methoxy-thioxanthen-9-yliden)-1-methyl-piperidine] |  | 
